Measured values: ChEMBL document CHEMBL4325854, “Synthetic small molecules as anti-biofilm agents in the struggle against antibiotic resistance” (Eur J Med Chem, 2019)

How the values were obtained:
[1] = test system: Staphylococcus aureus; test: Antibiofilm activity against Staphylococcus aureus ATCC 25923 at 1.5 ug/ml relative to control; type: functional
[2] = test system: Staphylococcus aureus; test: Antibiofilm activity against Staphylococcus aureus ATCC 29213 at 1.5 ug/ml relative to control; type: functional
[3] = test system: Staphylococcus epidermidis; test: Antibiofilm activity against Staphylococcus epidermidis DSM 3269 at 1.5 ug/ml relative to control; type: functional
[4] = test system: Staphylococcus epidermidis; test: Antibiofilm activity against Staphylococcus epidermidis RP62A at 1.5 ug/ml relative to control; type: functional
[5] = test system: Staphylococcus aureus; test: Antibiofilm activity against Staphylococcus aureus isolate 657 at 1.5 ug/ml relative to control; type: functional
[6] = test system: Staphylococcus aureus; test: Antibiofilm activity against Staphylococcus aureus isolate 702 at 1.5 ug/ml relative to control; type: functional
[7] = test system: Staphylococcus aureus; test: Antibiofilm activity against Staphylococcus aureus at 100 uM relative to control; type: functional
[8] = target: T1, Sortase A (Staphylococcus aureus, UniProt Q9S446); test: Inhibition of Staphylococcus aureus SrtA
T1 sequence (Q9S446 whole entry): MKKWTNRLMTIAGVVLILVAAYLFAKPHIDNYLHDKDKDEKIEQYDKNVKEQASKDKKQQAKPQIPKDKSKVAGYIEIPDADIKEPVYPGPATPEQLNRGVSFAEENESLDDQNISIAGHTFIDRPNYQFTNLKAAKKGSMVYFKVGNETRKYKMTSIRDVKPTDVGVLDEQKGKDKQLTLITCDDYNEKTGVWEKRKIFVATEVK

[9] = test system: Acinetobacter baumannii; test: Antibiofilm activity against Acinetobacter baumannii preformed biofilms; type: functional, organism-based
[10] = test system: Staphylococcus aureus; test: Antibiofilm activity against methicillin-resistant Staphylococcus aureus; type: functional, organism-based; conditions: Staphylococcus aureus
[11] = test system: Enterococcus faecalis; test: Antibiofilm activity against Enterococcus faecalis ATCC 29212; type: functional
[12] = test system: Staphylococcus aureus; test: Antibiofilm activity against Staphylococcus aureus BAA-1026; type: functional
[13] = test system: Staphylococcus aureus; test: Antibiofilm activity against Staphylococcus aureus ATCC 29213; type: functional, organism-based
[14] = test system: Staphylococcus aureus; test: Antibiofilm activity against Staphylococcus aureus ATCC 29213 at 25 ug/ml relative to control; type: functional
[15] = test system: Staphylococcus epidermidis; test: Antibiofilm activity against Staphylococcus epidermidis at 25 ug/ml relative to control; type: functional
[16] = test system: Pseudomonas aeruginosa; test: Antibiofilm activity against Pseudomonas aeruginosa PA14 assessed as inhibition of biofilm dispersion; type: functional, organism-based
[17] = test system: Bordetella bronchiseptica; test: Antibiofilm activity against Bordetella bronchiseptica RB50 assessed as inhibition of biofilm dispersion; type: functional, organism-based
[18] = test system: Staphylococcus aureus; test: Antibiofilm activity against methicillin-resistant Staphylococcus aureus ATCC BAA-44; type: functional, organism-based
[19] = test system: Pseudomonas aeruginosa; test: Antibiofilm activity against Pseudomonas aeruginosa PAO1 assessed as inhibition of biofilm dispersion; type: functional, organism-based
[20] = test system: Pseudomonas aeruginosa; test: Antibiofilm activity against Pseudomonas aeruginosa PAO1; type: functional, organism-based
[21] = test system: Pseudomonas aeruginosa; test: Antibiofilm activity against Pseudomonas aeruginosa PA14; type: functional, organism-based
[22] = test system: Acinetobacter baumannii; test: Antibiofilm activity against Acinetobacter baumannii; type: functional, organism-based
[23] = test system: Staphylococcus aureus; test: Synergistic antibacterial activity against methicillin-resistant Staphylococcus aureus assessed as fold reduction in oxacillin MIC; type: functional
[24] = test system: Staphylococcus aureus; test: Synergistic antibacterial activity against methicillin-resistant Staphylococcus aureus assessed as fold reduction in penicillin G MIC; type: functional
[25] = test system: Staphylococcus aureus; test: Antibiofilm activity against methicillin-resistant Staphylococcus aureus isolate 2; type: functional
[26] = test system: Staphylococcus aureus; test: Antibiofilm activity against methicillin-resistant Staphylococcus aureus BAA-1707; type: functional
[27] = test system: Staphylococcus aureus; test: Antibiofilm activity against methicillin-resistant Staphylococcus aureus BAA-1770; type: functional, organism-based
[28] = test system: Staphylococcus aureus; test: Antibiofilm activity against methicillin-resistant Staphylococcus aureus BAA-1685; type: functional, organism-based
[29] = test system: Staphylococcus aureus; test: Antibiofilm activity against methicillin-resistant Staphylococcus aureus ATCC 43300; type: functional, organism-based

## O=C(c1cc(Br)c(F)[nH]1)c1cc(Cl)cc(Cl)c1O
[1]
  Activity: >60%
[2]
  Activity: >60%
[3]
  Activity: >60%
[4]
  Activity: >60%
[5]
  Activity: >60%
[6]
  Activity: >60%

## CC(=O)/C(C#N)=N\Nc1ccccc1
[7]
  Activity: 39.2 - 68.3%
[8]
  IC50: 50 to 92 µM

## O=C(c1cc(Cl)cc(Cl)c1O)c1[nH]c(Cl)c(Cl)c1Cl
[1]
  Activity: >60%
[2]
  Activity: >60%
[3]
  Activity: >60%
[4]
  Activity: >60%
[5]
  Activity: >60%
[6]
  Activity: >60%

## CCCCOc1ccc(Br)c(/C=C(\C)Cn2cc(CCCCCc3c[nH]c(N)n3)nn2)c1F
[9]
  EC50: 44.7 to 59.6 µM
[10]
  EC50: 4.5 to 9.8 µM

## CCCCCCCCCCCCCCNC(=O)Cn1cc(C[C@@]23CNC[C@@H]2Nc2ccccc23)nn1
[10]
  IC50: 5.4 µM

## CCCCCCc1ccc(NC(=O)CCn2cc(C[C@@]34CNC[C@@H]3Nc3ccccc34)nn2)cc1
[10]
  IC50: 3.4 µM

## CCCCCCCc1ccc(NC(=O)CCn2cc(C[C@@]34CNC[C@@H]3Nc3ccccc34)nn2)cc1
[10]
  IC50: 2.8 µM

## Cc1sc(-c2ccc(-c3csc(-c4ccccc4)n3)cc2)nc1-c1ccccc1
[11]
  MBEC: 4 µg/mL
[12]
  MBEC: 1000 µg/mL

## O=C(c1cc(Br)ccc1O)c1[nH]c(Br)c(Cl)c1Br
[1]
  Activity: >60%
[2]
  Activity: >60%
[3]
  Activity: >60%
[4]
  Activity: >60%
[5]
  Activity: >60%
[6]
  Activity: >60%

## O=[N+]([O-])c1ccc(-c2csc(-c3ccc(-c4csc(-c5ccccc5)n4)cc3)n2)cc1
[11]
  MBEC: 2 µg/mL
[12]
  MBEC: >1000 µg/mL

## CCOC(=O)/C(=N/Nc1ccc(Cl)c(Cl)c1)C(=O)c1cc(C)nn1CC
[13]
  IC50: 1700 nM

## NC(=O)c1cc(-c2csc(-c3ccc(-c4csc(-c5ccccc5)n4)cc3)n2)ccc1O
[11]
  MBEC: 8 µg/mL
[12]
  MBEC: 250 µg/mL

## c1ccc(-c2csc(-c3ccc(-c4csc(-c5ccccc5)n4)cc3)n2)cc1
[11]
  MBEC: 2 µg/mL
[12]
  MBEC: 1000 µg/mL

## Cc1nn(C)c([N-]C(=O)c2ccc(Cl)cc2Cl)c1[N+]#N
[14]
  Activity: 69 - 96%
[15]
  Activity: 69 - 96%

## CCCCc1ccc(C(=O)NCCn2cc(CCCCc3[nH]c(N)nc3-c3cnc4ccccc4c3)nn2)cc1
[10]
  IC50: 4.2 µM

## CCCCOc1ccc(/C=C(\C)Cn2cc(CCCCCc3c[nH]c(N)n3)nn2)cc1
[9]
  EC50: 44.7 to 59.6 µM
[10]
  EC50: 4.5 to 9.8 µM

## Nc1nc(CCCNC(=O)c2cc(Br)c(Br)n2CCc2ccccc2)c[nH]1
[16]
  IC50: 22.9 µM
[17]
  IC50: 22.5 µM

## C/C(=C\c1cccc2ccccc12)Cn1cc(CCCCCc2c[nH]c(N)n2)nn1
[9]
  EC50: 44.7 to 59.6 µM
[10]
  EC50: 4.5 to 9.8 µM

## CC(=O)/C(=N\Nc1ccc([N+](=O)[O-])cc1)C(=O)O
[7]
  Activity: 39.2 - 68.3%
[8]
  IC50: 50 to 92 µM

## COC(=O)Oc1c(Br)cc(Br)c2nc3ccccc3nc12
[10]
  IC50: 1.4 to 2.9 µM

## CC(=O)/C(=N\Nc1cccc(Cl)c1)C(=O)O
[7]
  Activity: 39.2 - 68.3%
[8]
  IC50: 50 to 92 µM

## O=C1NC(C(Cl)(Cl)Cc2ccccc2)O/C1=C\c1ccc(C(F)(F)F)cc1 (centres undefined)
[18]
  IC50: 1200 nM

## O=C(c1cc(Br)ccc1O)c1[nH]c(Br)c(Br)c1Br
[1]
  Activity: >60%
[2]
  Activity: >60%
[3]
  Activity: >60%
[4]
  Activity: >60%
[5]
  Activity: >60%
[6]
  Activity: >60%

## CCCCc1ccc(C(=O)NCCn2cc(CCCCc3[nH]c(N)nc3-c3ccoc3)nn2)cc1
[10]
  IC50: 7.2 µM

## CCCCCCCCNC(=O)CCCc1c[nH]c(N)n1
[16]
  IC50: 13.3 µM
[19]
  IC50: 18.4 µM

## CCCCCCCCCCCCNC(=O)CCCc1c[nH]c(N)n1
[20]
  IC50: 2840 nM
[21]
  IC50: 2260 nM
[16]
  IC50: 2.26 µM
[19]
  IC50: 2.8 µM

## CCOC(=O)/C(=N/Nc1ccccc1)C(C)=O
[8]
  IC50: 192 µM

## CCCCCc1ccc(C(=O)NCCn2cc(CCCCCc3c[nH]c(N)n3)nn2)cc1
[10]
  IC50: 15.2 to 34 µM
[22]
  IC50: 15.2 to 34 µM

## CC(=O)/C(=N\Nc1ccc(Cl)c(Cl)c1)C(=O)O
[7]
  Activity: 39.2 - 68.3%
[8]
  IC50: 50 to 92 µM

## CCCc1ccc(-c2[nH]c(N)nc2CCCCCc2cn(C/C(C)=C/c3ccccc3)nn2)cc1
[9]
  IC50: 11.3 µM
[10]
  IC50: 1.42 µM

## Clc1ccc(-c2csc(-c3ccc(-c4csc(-c5ccccc5)n4)cc3)n2)cc1
[11]
  MBEC: 16 µg/mL
[12]
  MBEC: >1000 µg/mL

## Cc1nn(C)c([N-]C(=O)c2ccc(Cl)cc2)c1[N+]#N
[14]
  Activity: 69 - 96%
[15]
  Activity: 69 - 96%

## Nc1nc(CCCNC(=O)c2cc(Br)c(Br)n2-c2ccc(Br)cc2)c[nH]1
[16]
  IC50: 16.4 µM
[17]
  IC50: 29.3 µM

## O=C(c1cc(Br)ccc1O)c1[nH]c(Cl)c(Br)c1Br
[1]
  Activity: >60%
[2]
  Activity: >60%
[3]
  Activity: >60%
[4]
  Activity: >60%
[5]
  Activity: >60%
[6]
  Activity: >60%

## COc1cc(N/N=C(\C(C)=O)C(=O)O)cc(OC)c1OC
[7]
  Activity: 39.2 - 68.3%
[8]
  IC50: 50 to 92 µM

## O=C(c1cc(Br)cc(Br)c1O)c1[nH]c(Br)c(Br)c1Br
[1]
  Activity: >60%
[2]
  Activity: >60%
[3]
  Activity: >60%
[4]
  Activity: >60%
[5]
  Activity: >60%
[6]
  Activity: >60%

## CCCCCc1cccc(C(=O)NCCNC(=O)CCCCCc2cnc(N)[nH]2)c1
[10]
  IC50: 6.5 µg/mL
[23]
  fold change (FC): 64
[24]
  fold change (FC): 16

## O=C(c1cc(Cl)cc(Cl)c1O)c1[nH]c(Br)c(Br)c1Br
[1]
  Activity: >60%
[2]
  Activity: >60%
[3]
  Activity: >60%
[4]
  Activity: >60%
[5]
  Activity: >60%
[6]
  Activity: >60%

## Cc1ccc2c(Br)cc(Br)c(O)c2n1 [BROQUINALDOL]
[25]
  MBEC: 188 µM
[26]
  MBEC: 93 µM

## CC(=O)/C(=N\Nc1ccccc1)C(=O)O
[7]
  Activity: 39.2 - 68.3%
[8]
  IC50: 50 to 92 µM

## CCCCCCNC(=O)CCCc1c[nH]c(N)n1
[16]
  IC50: 39.9 µM
[19]
  IC50: 32.7 µM

## N#Cc1ccc(-c2csc(-c3ccc(-c4csc(-c5ccccc5)n4)cc3)n2)cc1
[11]
  MBEC: 2 µg/mL
[12]
  MBEC: 250 µg/mL

## CCCCc1ccc(C(=O)NCCn2cc(CCCCc3[nH]c(N)nc3-c3ccc4c(c3)OCO4)nn2)cc1
[10]
  IC50: 3.7 µM

## CCCCCCCCCCNC(=O)CCCc1c[nH]c(N)n1
[16]
  IC50: 6 µM
[19]
  IC50: 8 µM

## O=C(Oc1c(Br)cc(Br)c2nc3ccccc3nc12)c1ccco1
[10]
  IC50: 1.4 to 2.9 µM

## c1ccc(-c2nc(-c3ccc(-c4nc(-c5cccc6ccccc56)cs4)cc3)cs2)cc1
[11]
  MBEC: 4 µg/mL
[12]
  MBEC: 250 µg/mL

## O=C(c1cc(Br)ccc1O)c1[nH]c(Cl)c(Cl)c1Br
[1]
  Activity: >60%
[2]
  Activity: >60%
[3]
  Activity: >60%
[4]
  Activity: >60%
[5]
  Activity: >60%
[6]
  Activity: >60%

## Cc1cc(C(=O)/C(=N\Nc2ccc(Cl)c(Cl)c2)C(=O)O)no1
[13]
  IC50: 800 nM

## COc1ccc(-c2csc(-c3ccc(-c4csc(-c5ccccc5)n4)cc3)n2)cc1
[11]
  MBEC: 4 µg/mL
[12]
  MBEC: 62 µg/mL

## CCCCCc1ccc(C(=O)NCCn2cc(CCCCCc3c[nH]c(NCc4ccc(CCCC)cc4)n3)nn2)cc1
[27]
  IC50: 5.9 µM
[28]
  IC50: 5.5 µM
[29]
  IC50: 4.4 µM
